Results published in US6962939B1, “Condensed indoline derivatives and their use as 5HT, in particular 5HT2C, receptor ligands” (Vernalis Research Limited, priority 1999, dated 2005).
Structures can show the parent of a compound that is named as a salt.

Assays:
h5-HT2A receptor = target: T1, h5-HT2A receptor (Homo sapiens, UniProt P28223); test: Functional activity, FLIPR calcium assay, CHO cells expressing h5-HT2A; format: cell-based; conditions: for Emax: CHO, read-out: h5-HT2A Relative Efficacy (%); for EC50: FLIPR, CHO cells, Fluo 3-AM
T1 construct: expressed in transfected cells; host or cells: CHO cells
Description: (§1) The functional activity of compounds of formula (I) was assayed using a Fluorimetric Imaging Plate reader (FLIPR) in the following manner.
(§2) CHO cells expressing either the h5-HT2C or h5-HT2A receptors were counted and plated into standard 96 well microtitre plates before the day of testing to give a confluent monolayer. The following day the cells were dye loaded with the calcium sensitive dye Fluo 3-AM by incubation with serum free culture maintenance media containing plumnic acid and Fluo 3-AM dissolved in DMSO at 37° C. in a CO2 incubator at 95% humidity for approximately 90 minutes. Unincorporated dye was removed by washing with Hanks balanced salt solution containing 20 mM HEPES and 2.5 mM probenecid (the assay buffer) using an automated cell washer to leave a total volume of 100 μl/well.
(§3) The drug (dissolved in 50 μl of assay buffer) was added at a rate of 70 μL/sec to each well of the FLIPR 96 well plate during fluorescence measurements. The measurements are taken at 1 sec intervals and the maximum fluorescent signal was measured (approx 10–15 secs after drug addition) and compared with the response produced by 10 μM 5-HT (defined as 100%) to which it is expressed as a percentage response (relative efficacy). Dose response curves were constructed using Graphpad Prism (Graph Software Inc.).

h5-HT2C receptor = target: T2, h5-HT2C receptor (Homo sapiens, UniProt P28335); test: Functional activity, FLIPR calcium assay, CHO cells expressing h5-HT2C; format: cell-based; conditions: for Emax: CHO, read-out: h5-HT2C Relative Efficacy (%); for EC50: FLIPR, CHO cells, Fluo 3-AM
T2 construct: expressed in transfected cells; host or cells: CHO cells
T2 sequence (P28335 33-458): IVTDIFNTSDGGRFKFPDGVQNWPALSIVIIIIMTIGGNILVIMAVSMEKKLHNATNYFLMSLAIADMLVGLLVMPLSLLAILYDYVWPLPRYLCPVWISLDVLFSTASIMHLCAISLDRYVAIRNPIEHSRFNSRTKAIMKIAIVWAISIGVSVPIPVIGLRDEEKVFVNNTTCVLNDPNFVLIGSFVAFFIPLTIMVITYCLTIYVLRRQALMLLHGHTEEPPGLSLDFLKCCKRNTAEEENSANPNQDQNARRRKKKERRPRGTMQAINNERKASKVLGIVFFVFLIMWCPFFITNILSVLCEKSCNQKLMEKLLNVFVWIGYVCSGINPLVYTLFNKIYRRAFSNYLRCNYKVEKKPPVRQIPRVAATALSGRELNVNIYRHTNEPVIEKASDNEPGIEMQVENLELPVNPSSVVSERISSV
Description: as §1, §2, §3

human 5-HT2B receptors = target: T3, human 5-HT2B receptors (Homo sapiens, UniProt P41595); test: Binding to 5-HT2B receptor, [3H]-5-HT, CHO cell line; conditions: read-out: Ki (2B)
T3 construct: expressed in transfected cells; host or cells: CHO cell line
Description: (§4) The binding of compounds of formula (1) to serotonin receptors was determined in vitro by standard methods. The preparations were investigated in accordance with the assays given hereinafter.
Method (b): For the binding to the 5-HT2B receptor the 5-HT2B receptors were radiolabeled with [3H]-5-HT. The affinity of the compounds for human 5-HT2B receptors in a CHO cell line was determined according to the procedure of K. Schmuck, C. Ullmer, P. Engels and H. Lubbert, FEBS Lett., 1994, 342, 85–90.

5-HT2C receptor = target: T4, 5-HT2C receptor (Homo sapiens, UniProt P28335); test: Binding to 5-HT2C receptor, [3H]-5-HT, CHO cell line; conditions: read-out: Ki (2C)
T4 construct: expressed in transfected cells; host or cells: CHO cell line
T4 sequence (P28335 33-458): T2 sequence (P28335 33-458)
Description: as §4
Method (a): For the binding to the 5-HT2C receptor the 5-HT2C receptors were radiolabeled with [^3H]-5-HT. The affinity of the compounds for 5-HT2C receptors in a CHO cell line was determined according to the procedure of D. Hoyer, G. Engel and H. O. Kalknan, European J. Pharmacol., 1985, 118, 13–23.

5-HT2A receptor = target: T5, 5-HT2A receptor (Homo sapiens, UniProt P28223); test: Binding to 5-HT2A receptor, [125I]-DOI, CHO cell line; conditions: read-out: Ki (2A)
T5 construct: expressed in transfected cells; host or cells: CHO cell line
Description: as §4
Method (c): For the binding to the 5-HT2A receptor the 5-HT2A receptors were radiolabeled with [^125I]-DOI. The affinity of the compounds for 5-HT2A receptors in a CHO cell line was determined according to the procedure of D. J. McKenna and S. J. Peroutka, J. Neurosci., 1989, 9/10, 3482–90.

[1] = prolonged period (greater than 6 months); cited from earlier work
[2] = tested on: obese male and female subjects; conditions: subchronic treatment for a 14 day period; cited from earlier work
rats = conditions: cited from earlier work
female volunteers = conditions: single injection; cited from earlier work
[3] = maximum fluorescent signal relative to 10 μM 5-HT (defined as 100%)

T1 sequence (P28223 whole entry): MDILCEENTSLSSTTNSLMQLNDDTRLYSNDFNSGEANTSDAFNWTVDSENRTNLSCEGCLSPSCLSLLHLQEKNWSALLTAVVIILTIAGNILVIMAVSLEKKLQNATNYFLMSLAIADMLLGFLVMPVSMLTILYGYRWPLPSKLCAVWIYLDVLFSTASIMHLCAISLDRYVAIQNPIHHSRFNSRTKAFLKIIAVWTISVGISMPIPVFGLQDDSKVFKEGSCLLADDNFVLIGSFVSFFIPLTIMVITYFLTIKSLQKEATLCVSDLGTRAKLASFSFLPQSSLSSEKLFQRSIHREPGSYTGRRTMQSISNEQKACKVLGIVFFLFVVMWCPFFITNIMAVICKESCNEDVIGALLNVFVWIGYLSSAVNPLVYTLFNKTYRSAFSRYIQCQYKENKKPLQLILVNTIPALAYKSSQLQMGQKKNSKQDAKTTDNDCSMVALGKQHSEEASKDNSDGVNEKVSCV
T3 sequence (P41595 whole entry): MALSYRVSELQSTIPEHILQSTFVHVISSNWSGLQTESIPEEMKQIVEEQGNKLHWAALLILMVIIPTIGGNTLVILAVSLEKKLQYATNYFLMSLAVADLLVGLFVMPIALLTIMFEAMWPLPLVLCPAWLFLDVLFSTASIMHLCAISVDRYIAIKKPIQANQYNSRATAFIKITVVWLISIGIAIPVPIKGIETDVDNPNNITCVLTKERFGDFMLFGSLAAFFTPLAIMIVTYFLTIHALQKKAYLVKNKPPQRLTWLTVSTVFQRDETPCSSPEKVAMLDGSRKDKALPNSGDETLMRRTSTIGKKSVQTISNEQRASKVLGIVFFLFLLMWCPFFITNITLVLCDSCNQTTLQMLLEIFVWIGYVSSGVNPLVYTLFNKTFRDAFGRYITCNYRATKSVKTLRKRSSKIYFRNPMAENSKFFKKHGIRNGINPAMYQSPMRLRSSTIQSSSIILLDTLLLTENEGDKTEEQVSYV
T5 sequence (P28223 whole entry): as the sequence (P28223 whole entry) above

SMILES	melting point	Emax (h5-HT2A receptor; [3]) [%]	EC50 (h5-HT2A receptor) [nM]	Emax (h5-HT2C receptor; [3]) [%]	EC50 (h5-HT2C receptor) [nM]	further results
C[C@H](N)CN1CCc2ccc3c(c21)CCO3 (as salt: fumarate) [Compound 3, (S)-1-(2,3,7,8-Tetrahydrofuro[2,3-g]indol-1-yl)-2-propylamine fumarate]	215.5 to 217 °C (dec.)					
C[C@H](N)CN1CCc2ccc3c(c21)CCCO3 (as salt: fumarate) [Compound 4, (S)-1-(2,3,7,8-Tetrahydro-9H-pyrano[2,3-g]indol-1-yl)-2-propylamine fumarate]	168 to 169 °C					
C[C@H](N)CN1CCc2ccc3c(c21)CCS3 (as salt: fumarate) [Compound 5, (S)-1-(2,3,7,8-Tetrahydrothieno[2,3-g]indol-1-yl)-2-propylamine fumarate]	188 to 189.5 °C (dec.)					
C[C@H](N)CN1CCc2ccc3c(c21)OCCO3 (as salt: fumarate) [Compound 6, (S)-1-(2,3,7,8-Tetrahydro-9H-1,4-dioxino[2,3-g]indol-9-yl)2-propylamine fumarate]	173 to 174 °C (dec.)					
C[C@H](N)CN1CCc2ccc3c(c21)CCCC3 (as salt: fumarate) [Compound 7, (S)-1-(2,3,6,7,8,9-Hexabydro-1H-benz[g]indol-1-yl)]-2-propylamine, fumarate]	178 to 182 °C					
C[C@H](N)CN1CCc2ccc3c(c21)CCC3 (as salt: fumarate) [Compound 8, (S)-1-[1-(1,2,3,6,7,8-Hexabydrocyclopent[g]indolyl)]-2-propylamine fumarate]	182 °C (dec.)					
CCC1CN(CC(C)N)c2c1ccc1c2CCO1 (single isomer, unassigned) [Compound 9, [2S3′(R or S)]-1-(3-Ethyl-2,3,7,8-tetrahydrofuro[2,3-g]indol-1-yl)-2-propylamine fumarate]		22	1140	74	50	
CCC1CN(CC(C)N)c2c1ccc1c2CCO1 (single isomer, unassigned) [Compound 10, [2S,3′(S or R)]-1-(3-Ethyl-2,3,7,8-tetrahydrofuro[2,3-g]indol-1-yl)-2-propylamine fumarate]			403		51	h5-HT2A Relative Efficacy (%) (h5-HT2A receptor; [3]): 15%; h5-HT2C Relative Efficacy (%) (h5-HT2C receptor; [3]): 67%
C[C@H](N)CN1CCc2ccc3ccccc3c21 [Compound 1, (S)-1-(Benz[g]indolin-1-yl)-2-propylamine hemi-fumarate]		51	1370	79	158	Ki (human 5-HT2B receptors): 39 nM; Ki (5-HT2C receptor): 107 nM; Ki (5-HT2A receptor): 173 nM
C[C@@H](N)CN1CCc2ccc3ccccc3c21 [Compound 2, (R)-1-(Benz[g]indolin-1-yl)-2-propylamine hemi-fumarate]			> 10000	44	1720	
C[C@H](N)CN1CCc2ccc3c(c21)CCO3 [Compound 3, (S)-1-(2,3,7,8-Tetrahydrofuro[2,3-g]indol-1-yl)-2-propylamine fumarate]		81	138	94	6	
C[C@H](N)CN1CCc2ccc3c(c21)CCCO3 [Compound 4, (S)-1-(2,3,7,8-Tetrahydro-9H-pyrano[2,3-g]indol-1-yl)-2-propylamine fumarate]		66	505	89	47	
C[C@H](N)CN1CCc2ccc3c(c21)CCS3 [Compound 5, (S)-1-(2,3,7,8-Tetrahydrothieno[2,3-g]indol-1-yl)-2-propylamine fumarate]		77	48	86	0.4	
C[C@H](N)CN1CCc2ccc3c(c21)OCCO3 [Compound 6, (S)-1-(2,3,7,8-Tetrahydro-9H-1,4-dioxino[2,3-g]indol-9-yl)2-propylamine fumarate]		71	312	90	47	Ki (human 5-HT2B receptors): 218 nM; Ki (5-HT2C receptor): 70 nM; Ki (5-HT2A receptor): 223 nM
C[C@H](N)CN1CCc2ccc3c(c21)CCCC3 [Compound 7, (S)-1-(2,3,6,7,8,9-Hexabydro-1H-benz[g]indol-1-yl)]-2-propylamine, fumarate]		14	1830	68	440	
C[C@H](N)CN1CCc2ccc3c(c21)CCC3 [Compound 8, (S)-1-[1-(1,2,3,6,7,8-Hexabydrocyclopent[g]indolyl)]-2-propylamine fumarate]		0	≥ 10000	69	217	
CCN[C@@H](C)Cc1cccc(C(F)(F)F)c1 [dexfenfluramine]						food intake and body weight [1]: decrease food intake and body weight
CCNC(C)Cc1cccc(C(F)(F)F)c1 (stereo not drawn) [fenfluramine]						food intake and body weight [1]: decrease food intake and body weight
Clc1cccc(N2CCNCC2)c1 [mCPP, m-chlorophenylpiperazine]						appetite and body weight of obese subjects [2]: decreased the appetite and body weight; appearance of the behavioural satiety sequence (rats; rat, in vivo): accelerate the appearance of the behavioural satiety sequence; food intake in rats (rats; rats): reduce food intake; food intake in female volunteers (female volunteers): decreased food intake
